Results as given in ChEMBL document CHEMBL1201862, “PubChem BioAssay data set” (2004).
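Growth conditions: 96-well plates. Treatment: test compound, 48 hours, 5 concentrations. Analysis: linear interpolation between bracketing concentrations; unreached endpoints set to highest concentration. Abbreviation: GI50, concentration required for 50% inhibition of growth.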 Activity calls are given as the source filed them. Rule as the data show it: active = GI50 up to about 1.1 µM and inactive = higher.

Assays:
Assay in all cases: NCI tumour cell line growth inhibition, 48 h
[1] = system: 786-0
[2] = system: A498
[3] = system: A549
[4] = system: ACHN
[5] = system: CAKI-1
[6] = system: CCRF-CEM
[7] = system: COLO 205
[8] = system: DLD-1
[9] = system: DMS-114
[10] = system: DMS-273
[11] = system: EKVX
[12] = system: HCC 2998
[13] = system: HCT-116
[14] = system: HCT-15
[15] = system: HL-60
[16] = system: HOP-18
[17] = system: HOP-62
[18] = system: HOP-92
[19] = system: HT-29
[20] = system: IGROV-1
[21] = system: K562
[22] = system: KM12
[23] = system: LOX IMVI
[24] = system: LXFL 529
[25] = system: M14
[26] = system: M19-MEL
[27] = system: MOLT-4
[28] = system: Malme-3M
[29] = system: NCI-H226
[30] = system: NCI-H23
[31] = system: NCI-H460
[32] = system: NCI-H522
[33] = system: OVCAR-3
[34] = system: OVCAR-4
[35] = system: OVCAR-5
[36] = system: OVCAR-8
[37] = system: RPMI-8226
[38] = system: RXF 393
[39] = system: RXF 631
[40] = system: SF-268
[41] = system: SF-295
[42] = system: SF-539
[43] = system: SK-MEL-28
[44] = system: SK-MEL-2
[45] = system: SK-MEL-5
[46] = system: SK-OV-3
[47] = system: SN12C
[48] = system: SNB-19
[49] = system: SNB-75
[50] = system: SNB-78
[51] = system: SR
[52] = system: SW-620
[53] = system: TK-10
[54] = system: U-251
[55] = system: UACC-257
[56] = system: UACC-62
[57] = system: UO-31
[58] = system: KM-20L2
[59] = system: XF498

For `CCCCCCCCCCC(C)CCCCCCC(=O)O` (centres undefined), the GI50 [1] was > 100 µM (inactive), the GI50 [2] was > 100 µM (inactive) and the GI50 [3] was > 100 µM (inactive). For the same molecule, the GI50 [4] was > 100 µM (inactive), the GI50 [5] was > 100 µM (inactive) and the GI50 [6] was > 100 µM (inactive). For the same molecule, the GI50 [7] was > 100 µM (inactive), the GI50 [8] was > 100 µM (inactive) and the GI50 [9] was > 100 µM (inactive). The GI50 [10] was > 100 µM (inactive), the GI50 [11] was > 100 µM (inactive) and the GI50 [12] was > 100 µM (inactive). The GI50 [13] was > 100 µM (inactive), the GI50 [14] was > 100 µM and the GI50 [15] was > 100 µM (inactive). The GI50 [16] was > 100 µM (inactive), the GI50 [17] was > 100 µM (inactive) and the GI50 [18] was > 100 µM (inactive). The GI50 [19] was > 100 µM (inactive), the GI50 [20] was > 100 µM (inactive) and the GI50 [21] was > 100 µM (inactive). For the same molecule, the GI50 [22] was > 100 µM (inactive), the GI50 [23] was > 100 µM (inactive) and the GI50 [24] was > 100 µM (inactive). The GI50 [25] was > 100 µM (inactive), the GI50 [26] was > 100 µM (inactive) and the GI50 [27] was > 100 µM (inactive). The GI50 [28] was > 100 µM (inactive), the GI50 [29] was > 100 µM (inactive) and the GI50 [30] was > 100 µM (inactive). The GI50 [31] was > 100 µM (inactive), the GI50 [32] was > 100 µM (inactive) and the GI50 [33] was > 100 µM (inactive). For the same molecule, the GI50 [34] was > 100 µM (inactive), the GI50 [35] was > 100 µM (inactive) and the GI50 [36] was > 100 µM (inactive). For the same molecule, the GI50 [37] was > 100 µM (inactive), the GI50 [38] was > 100 µM (inactive) and the GI50 [39] was > 100 µM (inactive). For the same molecule, the GI50 [40] was > 100 µM (inactive), the GI50 [41] was > 100 µM (inactive) and the GI50 [42] was > 100 µM (inactive). For the same molecule, the GI50 [43] was > 100 µM (inactive), the GI50 [44] was > 100 µM (inactive) and the GI50 [45] was > 100 µM (inactive). The GI50 [46] was > 100 µM (inactive), the GI50 [47] was > 100 µM (inactive) and the GI50 [48] was > 100 µM (inactive). For the same molecule, the GI50 [49] was > 100 µM (inactive), the GI50 [50] was > 100 µM (inactive) and the GI50 [51] was > 100 µM (inactive). The GI50 [52] was > 100 µM (inactive), the GI50 [53] was > 100 µM (inactive) and the GI50 [54] was > 100 µM (inactive). The GI50 [55] was > 100 µM (inactive), the GI50 [56] was > 100 µM (inactive) and the GI50 [57] was > 100 µM (inactive).

`CC1(C)Oc2ccccc2[N+]([O-])=C1c1ccccc1` was tested, and the GI50 [1] was > 100 µM (inactive), the GI50 [2] was > 100 µM (inactive) and the GI50 [3] was > 100 µM (inactive). The GI50 [4] was > 100 µM (inactive), the GI50 [5] was > 100 µM (inactive) and the GI50 [6] was > 100 µM (inactive). For the same molecule, the GI50 [7] was > 100 µM (inactive), the GI50 [8] was > 100 µM (inactive) and the GI50 [9] was > 100 µM (inactive). For the same molecule, the GI50 [10] was > 100 µM (inactive), the GI50 [12] was > 100 µM (inactive) and the GI50 [13] was > 100 µM (inactive). The GI50 [14] was > 100 µM, the GI50 [15] was > 100 µM (inactive) and the GI50 [17] was > 100 µM (inactive). The GI50 [18] was > 100 µM (inactive), the GI50 [19] was > 100 µM (inactive) and the GI50 [20] was > 100 µM (inactive). The GI50 [21] was > 100 µM (inactive), the GI50 [58] was > 100 µM (inactive) and the GI50 [24] was > 100 µM (inactive). For the same molecule, the GI50 [25] was > 100 µM (inactive), the GI50 [26] was > 100 µM (inactive) and the GI50 [27] was > 100 µM (inactive). For the same molecule, the GI50 [28] was > 100 µM (inactive), the GI50 [30] was > 100 µM (inactive) and the GI50 [31] was > 100 µM (inactive). For the same molecule, the GI50 [32] was > 100 µM (inactive), the GI50 [33] was > 100 µM (inactive) and the GI50 [34] was > 100 µM (inactive). For the same molecule, the GI50 [36] was > 100 µM (inactive), the GI50 [37] was > 100 µM (inactive) and the GI50 [38] was > 100 µM (inactive). For the same molecule, the GI50 [39] was > 100 µM (inactive), the GI50 [40] was > 100 µM (inactive) and the GI50 [41] was > 100 µM (inactive). The GI50 [42] was > 100 µM (inactive), the GI50 [43] was > 100 µM (inactive) and the GI50 [45] was > 100 µM (inactive). For the same molecule, the GI50 [46] was > 100 µM (inactive), the GI50 [47] was > 100 µM (inactive) and the GI50 [48] was > 100 µM (inactive). The GI50 [49] was > 100 µM (inactive), the GI50 [50] was > 100 µM (inactive) and the GI50 [51] was > 100 µM (inactive). For the same molecule, the GI50 [52] was > 100 µM (inactive), the GI50 [54] was > 100 µM (inactive) and the GI50 [55] was > 100 µM (inactive). The GI50 [56] was > 100 µM (inactive) and the GI50 [57] was > 100 µM (inactive).

For `CCC12CCCN(Cc3ccccc3)C1c1c(n(C)c3ccccc13)[C@H](C(=O)OC)C2` (some centres undefined), the GI50 [1] was > 239 µM (inactive), the GI50 [3] was > 239 µM (inactive) and the GI50 [4] was > 239 µM (inactive). For the same molecule, the GI50 [5] was 173 µM (inactive), the GI50 [6] was > 239 µM (inactive) and the GI50 [7] was 112 µM (inactive). The GI50 [8] was > 239 µM (inactive), the GI50 [9] was 226 µM (inactive) and the GI50 [10] was > 239 µM (inactive). For the same molecule, the GI50 [11] was > 239 µM (inactive), the GI50 [12] was > 239 µM (inactive) and the GI50 [13] was 146 µM (inactive). For the same molecule, the GI50 [14] was 85.7 µM, the GI50 [15] was > 239 µM (inactive) and the GI50 [17] was > 239 µM (inactive). The GI50 [18] was 10.6 µM (inactive), the GI50 [19] was 32 µM (inactive) and the GI50 [20] was > 239 µM (inactive). For the same molecule, the GI50 [21] was > 239 µM (inactive), the GI50 [58] was 120 µM (inactive) and the GI50 [22] was > 239 µM (inactive). For the same molecule, the GI50 [23] was > 239 µM (inactive), the GI50 [24] was > 239 µM (inactive) and the GI50 [26] was 130 µM (inactive). For the same molecule, the GI50 [27] was > 239 µM (inactive), the GI50 [28] was > 239 µM (inactive) and the GI50 [29] was > 239 µM (inactive). The GI50 [30] was > 239 µM (inactive), the GI50 [31] was > 239 µM (inactive) and the GI50 [32] was 122 µM (inactive). For the same molecule, the GI50 [33] was > 239 µM (inactive), the GI50 [35] was 147 µM (inactive) and the GI50 [36] was > 239 µM (inactive). For the same molecule, the GI50 [37] was > 239 µM (inactive), the GI50 [38] was > 239 µM (inactive) and the GI50 [39] was > 239 µM (inactive). For the same molecule, the GI50 [40] was > 239 µM (inactive), the GI50 [41] was > 239 µM (inactive) and the GI50 [42] was > 239 µM (inactive). For the same molecule, the GI50 [43] was > 239 µM (inactive), the GI50 [44] was > 239 µM (inactive) and the GI50 [45] was 142 µM (inactive). For the same molecule, the GI50 [46] was > 239 µM (inactive), the GI50 [47] was 224 µM (inactive) and the GI50 [48] was > 239 µM (inactive). For the same molecule, the GI50 [51] was > 239 µM (inactive), the GI50 [52] was 211 µM (inactive) and the GI50 [53] was > 239 µM (inactive). For the same molecule, the GI50 [54] was > 239 µM (inactive), the GI50 [55] was 110 µM (inactive) and the GI50 [56] was > 239 µM (inactive). The GI50 [59] was 201 µM (inactive).
